From ChEMBL document CHEMBL4270599, “Synthesis of a 3'-C-ethynyl-β-d-ribofuranose purine nucleoside library: Discovery of C7-deazapurine analogs as potent antiproliferative nucleosides” (Eur J Med Chem, 2018)

Assays:
Type in all cases: functional
NCI-H522 [1] = assay: Growth inhibition of human NCI-H522 cells assessed as cell growth at 10^-6 M incubated for 48 hrs by sulforhodamine B assay relative to control; conditions: NCI-H522, 48 h, read-out: Activity
COLO 205 = assay: Growth inhibition of human COLO205 cells assessed as cell growth at 10^-6 M incubated for 48 hrs by sulforhodamine B assay relative to control; conditions: COLO 205, 48 h, read-out: Activity
IGROV-1 = assay: Growth inhibition of human IGROV1 cells assessed as cell growth at 10^-6 M incubated for 48 hrs by sulforhodamine B assay relative to control; conditions: IGROV-1, 48 h, read-out: Activity
SK-OV-3 [2] = assay: Growth inhibition of human SKOV3 cells assessed as cell growth at 10^-6 M incubated for 48 hrs by sulforhodamine B assay relative to control; conditions: SK-OV-3, 48 h, read-out: Activity
T47D [3] = assay: Growth inhibition of human T47D cells assessed as cell growth at 10^-6 M incubated for 48 hrs by sulforhodamine B assay relative to control; conditions: read-out: Activity
MDA-MB-468 [4] = assay: Growth inhibition of human MDA-MB-468 cells assessed as cell growth at 10^-6 M incubated for 48 hrs by sulforhodamine B assay relative to control; conditions: MDA-MB-468, 48 h, read-out: Activity
EKVX = assay: Growth inhibition of human EKVX cells assessed as cell growth at 10^-5 M incubated for 48 hrs by sulforhodamine B assay relative to control; conditions: read-out: Activity
HOP-62 [5] = assay: Growth inhibition of human HOP62 cells assessed as cell growth at 10^-5 M incubated for 48 hrs by sulforhodamine B assay relative to control; conditions: HOP-62, 48 h, read-out: Activity
NCI-H522 [6] = assay: Growth inhibition of human NCI-H522 cells assessed as cell growth at 10^-5 M incubated for 48 hrs by sulforhodamine B assay relative to control; conditions: NCI-H522, 48 h, read-out: Activity
LOX IMVI [7] = assay: Growth inhibition of human LOXIMVI cells assessed as cell growth at 10^-5 M incubated for 48 hrs by sulforhodamine B assay relative to control; conditions: read-out: Activity
SK-MEL-2 [8] = assay: Growth inhibition of human SK-MEL-2 cells assessed as cell growth at 10^-5 M incubated for 48 hrs by sulforhodamine B assay relative to control; conditions: SK-MEL-2, 48 h, read-out: Activity
SK-MEL-5 [9] = assay: Growth inhibition of human SK-MEL-5 cells assessed as cell growth at 10^-5 M incubated for 48 hrs by sulforhodamine B assay relative to control; conditions: SK-MEL-5, 48 h, read-out: Activity
OVCAR-3 = assay: Growth inhibition of human OVCAR3 cells assessed as cell growth at 10^-5 M incubated for 48 hrs by sulforhodamine B assay relative to control; conditions: OVCAR-3, 48 h, read-out: Activity
A498 [10] = assay: Growth inhibition of human A498 cells assessed as cell growth at 10^-5 M incubated for 48 hrs by sulforhodamine B assay relative to control; conditions: A498, 48 h, read-out: Activity
MDA-MB-468 [11] = assay: Growth inhibition of human MDA-MB-468 cells assessed as cell growth at 10^-5 M incubated for 48 hrs by sulforhodamine B assay relative to control; conditions: MDA-MB-468, 48 h, read-out: Activity
RPMI-8226 = assay: Growth inhibition of human RPMI8226 cells assessed as cell growth at 10^-4 M incubated for 48 hrs by sulforhodamine B assay relative to control; conditions: RPMI-8226, 48 h, read-out: Activity
HOP-62 [12] = assay: Growth inhibition of human HOP62 cells assessed as cell growth at 10^-4 M incubated for 48 hrs by sulforhodamine B assay relative to control; conditions: HOP-62, 48 h, read-out: Activity
HOP-92 = assay: Growth inhibition of human HOP92 cells assessed as cell growth at 10^-4 M incubated for 48 hrs by sulforhodamine B assay relative to control; conditions: HOP-92, 48 h, read-out: Activity
NCI-H322M = assay: Growth inhibition of human NCI-H322M cells assessed as cell growth at 10^-4 M incubated for 48 hrs by sulforhodamine B assay relative to control; conditions: read-out: Activity
NCI-H460 = assay: Growth inhibition of human NCI-H460 cells assessed as cell growth at 10^-4 M incubated for 48 hrs by sulforhodamine B assay relative to control; conditions: NCI-H460, 48 h, read-out: Activity
NCI-H522 [13] = assay: Growth inhibition of human NCI-H522 cells assessed as cell growth at 10^-4 M incubated for 48 hrs by sulforhodamine B assay relative to control; conditions: NCI-H522, 48 h, read-out: Activity
SF-539 = assay: Growth inhibition of human SF539 cells assessed as cell growth at 10^-4 M incubated for 48 hrs by sulforhodamine B assay relative to control; conditions: SF-539, 48 h, read-out: Activity
LOX IMVI [14] = assay: Growth inhibition of human LOXIMVI cells assessed as cell growth at 10^-4 M incubated for 48 hrs by sulforhodamine B assay relative to control; conditions: read-out: Activity
SK-MEL-2 [15] = assay: Growth inhibition of human SK-MEL-2 cells assessed as cell growth at 10^-4 M incubated for 48 hrs by sulforhodamine B assay relative to control; conditions: SK-MEL-2, 48 h, read-out: Activity
SK-MEL-28 = assay: Growth inhibition of human SK-MEL-28 cells assessed as cell growth at 10^-4 M incubated for 48 hrs by sulforhodamine B assay relative to control; conditions: SK-MEL-28, 48 h, read-out: Activity
SK-MEL-5 [16] = assay: Growth inhibition of human SK-MEL-5 cells assessed as cell growth at 10^-4 M incubated for 48 hrs by sulforhodamine B assay relative to control; conditions: SK-MEL-5, 48 h, read-out: Activity
OVCAR-8 = assay: Growth inhibition of human OVCAR8 cells assessed as cell growth at 10^-4 M incubated for 48 hrs by sulforhodamine B assay relative to control; conditions: OVCAR-8, 48 h, read-out: Activity
786-0 = assay: Growth inhibition of human 786-0 cells assessed as cell growth at 10^-4 M incubated for 48 hrs by sulforhodamine B assay relative to control; conditions: 786-0, 48 h, read-out: Activity
A498 [17] = assay: Growth inhibition of human A498 cells assessed as cell growth at 10^-4 M incubated for 48 hrs by sulforhodamine B assay relative to control; conditions: A498, 48 h, read-out: Activity
RXF 393 = assay: Growth inhibition of human RXF393 cells assessed as cell growth at 10^-4 M incubated for 48 hrs by sulforhodamine B assay relative to control; conditions: RXF 393, 48 h, read-out: Activity
T47D [18] = assay: Growth inhibition of human T47D cells assessed as cell growth at 10^-4 M incubated for 48 hrs by sulforhodamine B assay relative to control; conditions: read-out: Activity
SF-295 = assay: Growth inhibition of human SF295 cells assessed as cell growth at 10^-5 M incubated for 48 hrs by sulforhodamine B assay relative to control; conditions: SF-295, 48 h, read-out: Activity
SK-OV-3 [19] = assay: Growth inhibition of human SKOV3 cells assessed as cell growth at 10^-5 M incubated for 48 hrs by sulforhodamine B assay relative to control; conditions: SK-OV-3, 48 h, read-out: Activity
UACC-62 = assay: Growth inhibition of human UACC62 cells assessed as cell growth at 10^-4 M incubated for 48 hrs by sulforhodamine B assay relative to control; conditions: UACC-62, 48 h, read-out: Activity

| SMILES | growth at 1 µM (NCI-H522 [1]) [%] | growth at 1 µM (COLO 205) [%] | growth at 1 µM (IGROV-1) [%] | growth at 1 µM (SK-OV-3 [2]) [%] | growth at 1 µM (T47D [3]) [%] | growth at 1 µM (MDA-MB-468 [4]) [%] | growth at 10 µM (EKVX) [%] | growth at 10 µM (HOP-62 [5]) [%] | growth at 10 µM (NCI-H522 [6]) [%] | growth at 10 µM (LOX IMVI [7]) [%] | growth at 10 µM (SK-MEL-2 [8]) [%] | growth at 10 µM (SK-MEL-5 [9]) [%] | growth at 10 µM (OVCAR-3) [%] | growth at 10 µM (A498 [10]) [%] | growth at 10 µM (MDA-MB-468 [11]) [%] | growth at 100 µM (RPMI-8226) [%] | growth at 100 µM (HOP-62 [12]) [%] | growth at 100 µM (HOP-92) [%] | growth at 100 µM (NCI-H322M) [%] | growth at 100 µM (NCI-H460) [%] | also measured |
| --- | --- | --- | --- | --- | --- | --- | --- | --- | --- | --- | --- | --- | --- | --- | --- | --- | --- | --- | --- | --- | --- |
| C#C[C@@]1(O)[C@@H](CO)O[C@@H](n2cc(F)c3c(N)ncnc32)[C@@H]1O | -2 | 7 | 6 | 12 | -10 | 13 | 1 | -4 | -24 | -78 | -26 | -89 | 5 | -77 | -57 | -21 | -15 | -47 | -30 | -38 | growth at 100 µM (NCI-H522 [13]): -40%; growth at 100 µM (SF-539): -39%; growth at 100 µM (LOX IMVI [14]): -90%; growth at 100 µM (SK-MEL-2 [15]): -36%; growth at 100 µM (SK-MEL-28): 19%; growth at 100 µM (SK-MEL-5 [16]): -93%; growth at 100 µM (OVCAR-8): -27%; growth at 100 µM (786-0): -36%; growth at 100 µM (A498 [17]): -75%; growth at 100 µM (RXF 393): -49%; growth at 100 µM (T47D [18]): -77%; growth at 10 µM (SF-295): -69%; growth at 10 µM (SK-OV-3 [19]): -26%; growth at 100 µM (UACC-62): -78% |
| C#C[C@@]1(O)[C@@H](CO)O[C@@H](n2ccc3c(N)ncnc32)[C@@H]1O | 29 | 40 | 63 | 52 | 30 | 64 | -24 | -9 | -21 | -87 | -15 | -95 | 3 | -60 | -58 | 2 | -10 | -87 | -65 | -13 | growth at 100 µM (NCI-H522 [13]): -42%; growth at 100 µM (SF-539): -82%; growth at 100 µM (LOX IMVI [14]): -92%; growth at 100 µM (SK-MEL-2 [15]): -34%; growth at 100 µM (SK-MEL-28): -47%; growth at 100 µM (SK-MEL-5 [16]): -99%; growth at 100 µM (OVCAR-8): -65%; growth at 100 µM (786-0): -95%; growth at 100 µM (A498 [17]): -47%; growth at 100 µM (RXF 393): -92%; growth at 100 µM (T47D [18]): -71%; growth at 10 µM (SF-295): -28%; growth at 10 µM (SK-OV-3 [19]): -20%; growth at 100 µM (UACC-62): -65% |
